US12129246B1, “Hydroquinazoline derivatives for the treatment of a disease or disorder” (Novartis AG, priority 2023, dated 2024)
Like-named read-outs stand apart in the source and are kept apart here.

Key:
[1] = molecular target: T1, human NPR1 (Homo sapiens, UniProt P16066); test: Cellular cGMP production assay, human NPR1 expressing CHO-K1 cells (CisBio HTRF); type: cell-based; details: for AC50: cGMP production, 30 min at 37° C., 12-point dose-response from 30 μM; for Human NPR1 Amax (% of ANP): maximum cGMP production as percentage of the maximum cGMP produced with ANP
T1 construct: host or cells: CHO-K1
T1 sequence (P16066 33-1061): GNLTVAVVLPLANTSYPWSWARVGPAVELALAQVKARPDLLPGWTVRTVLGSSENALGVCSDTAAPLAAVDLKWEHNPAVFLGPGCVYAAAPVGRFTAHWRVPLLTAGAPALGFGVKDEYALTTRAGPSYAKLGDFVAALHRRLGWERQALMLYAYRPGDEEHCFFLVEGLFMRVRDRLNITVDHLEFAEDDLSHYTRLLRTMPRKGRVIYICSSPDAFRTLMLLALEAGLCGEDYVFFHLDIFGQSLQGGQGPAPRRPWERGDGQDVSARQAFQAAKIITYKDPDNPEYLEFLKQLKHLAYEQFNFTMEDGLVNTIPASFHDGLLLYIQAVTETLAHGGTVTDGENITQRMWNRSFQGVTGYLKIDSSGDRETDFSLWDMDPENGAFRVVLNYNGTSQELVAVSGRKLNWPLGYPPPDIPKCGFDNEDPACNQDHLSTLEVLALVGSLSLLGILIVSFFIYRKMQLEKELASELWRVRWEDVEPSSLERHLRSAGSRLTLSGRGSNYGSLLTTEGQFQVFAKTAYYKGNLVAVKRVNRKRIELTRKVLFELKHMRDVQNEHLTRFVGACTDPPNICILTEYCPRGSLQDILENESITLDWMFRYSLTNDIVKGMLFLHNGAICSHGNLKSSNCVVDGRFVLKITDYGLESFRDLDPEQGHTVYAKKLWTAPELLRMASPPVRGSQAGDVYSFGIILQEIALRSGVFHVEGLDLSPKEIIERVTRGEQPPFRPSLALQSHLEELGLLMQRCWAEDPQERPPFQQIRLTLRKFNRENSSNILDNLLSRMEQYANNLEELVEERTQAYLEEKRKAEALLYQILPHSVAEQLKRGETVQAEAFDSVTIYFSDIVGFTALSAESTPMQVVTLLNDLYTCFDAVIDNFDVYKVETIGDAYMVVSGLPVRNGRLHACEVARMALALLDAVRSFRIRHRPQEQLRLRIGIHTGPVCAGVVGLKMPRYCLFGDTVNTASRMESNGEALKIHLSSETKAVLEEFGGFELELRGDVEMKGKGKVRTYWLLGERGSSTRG
Method in brief: (§1)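 Read-out was HTRF (excitation 317 nm, emission 665 nm), with cGMP quantified as Delta F against a calibrator standard curve. Beforehand, cells were exposed for 30 min at 37 °C to compound (30 μM top, twelve 3-fold steps) in IBMX-containing PBS/BSA buffer, then lysed.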

[2] = molecular target: monkey NPR1 (Macaca fascicularis, UniProt A0A7N9DBT9); test: Cellular cGMP production assay, monkey NPR1 expressing CHO-K1 cells (CisBio HTRF); type: cell-based; details: for Monkey NPR1 Amax (% of ANP): maximum cGMP production as percentage of the maximum cGMP produced with ANP
Method in brief: as §1

[3] = cGMP production, monkey NPR1 CHO-K1 cells, 30 min at 37° C., 12-point dose-response from 30 μM, read-out: Monkey NPR1 AC50

monkey NPR1, sequence (A0A7N9DBT9 entry or part of it): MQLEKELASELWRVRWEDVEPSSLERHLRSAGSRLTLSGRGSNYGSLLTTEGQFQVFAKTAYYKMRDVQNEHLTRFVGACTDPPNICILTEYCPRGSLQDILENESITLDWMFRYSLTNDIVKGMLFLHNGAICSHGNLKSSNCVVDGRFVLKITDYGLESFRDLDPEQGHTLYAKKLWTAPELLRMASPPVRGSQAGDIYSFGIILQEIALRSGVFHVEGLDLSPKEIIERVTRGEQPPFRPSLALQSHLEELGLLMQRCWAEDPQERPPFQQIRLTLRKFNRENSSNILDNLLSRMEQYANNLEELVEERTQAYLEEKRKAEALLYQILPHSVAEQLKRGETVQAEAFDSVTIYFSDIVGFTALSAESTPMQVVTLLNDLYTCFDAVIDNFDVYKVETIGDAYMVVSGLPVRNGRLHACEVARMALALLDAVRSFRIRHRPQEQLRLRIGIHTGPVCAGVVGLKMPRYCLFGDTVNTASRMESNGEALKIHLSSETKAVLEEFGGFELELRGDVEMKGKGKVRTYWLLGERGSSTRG

Compound	AC50 [1] [µM]	Human NPR1 Amax (% of ANP) [1]	AC50 [2, 3] [µM]	Monkey NPR1 Amax (% of ANP) ([2]; monkey NPR1 CHO-K1 cells)	AC50 [2] [µM]
CC[C@H]([C@H]1CC[C@H](C(=O)O)CC1)N(C)c1nc2c(c(N[C@@H](CN3CC4CCC3C4)c3cnn(C)c3)n1)C[C@H](c1ccccc1)CC2 (stereo partly drawn) [Compound 128, (1R,4r)-4-((1R)-1-(((6R)-4-(((1R)-2-(2-azabicyclo[2.2.1]heptan-2-yl)-1-(1-methyl-1H-pyrazol-4-yl)ethyl)amino)-6-phenyl-5,6,7,8-tetrahydroquinazolin-2-yl)(methyl)amino)propyl)cyclohexane-1-carboxylic acid]	0.629	105.430 % of ANP	0.416	95.117 % of ANP	
CC[C@@H](Nc1nc2c(c(N[C@@H](CN3CCCC[C@@H]3C)c3cnn(C)c3)n1)C[C@H](c1ccccc1)CC2)[C@H]1CC[C@H](C(=O)O)CC1 [Compound 123, (1R,4r)-4-((R)-1-(((R)-4-(((R)-1-(1-methyl-1H-pyrazol-4-yl)-2-((S)-2-methylpiperidin-1-yl)ethyl)amino)-6-phenyl-5,6,7,8-tetrahydroquinazolin-2-yl)amino)propyl)cyclohexane-1-carboxylic acid]	0.592	103.006 % of ANP	0.377	102.761 % of ANP	
CC[C@@H](Nc1nc2c(c(N[C@@H](CN3C4CCCC3CC4)c3cnn(C)c3)n1)C[C@H](c1ccccc1)CC2)[C@H]1CC[C@H](C(=O)O)CC1 [Compound 60, (1R,4r)-4-((1R)-1-(((6R)-4-(((1R)-2-(8-azabicyclo[3.2.1]octan-8-yl)-1-(1-methyl-1H-pyrazol-4-yl)ethyl)amino)-6-phenyl-5,6,7,8-tetrahydroquinazolin-2-yl)amino)propyl)cyclohexane-1-carboxylic acid]	0.205	93.233 % of ANP		106.189 % of ANP	0.099
CC[C@H]([C@H]1CC[C@H](C(=O)O)CC1)N(C)c1nc2c(c(N[C@@H](CN3CCCC(F)C3)c3cnn(C)c3)n1)C[C@H](c1ccccc1)CC2 (stereo partly drawn) [Compound 156, (1R,4r)-4-((1R)-1-(((6R)-4-(((1R)-2-(3-fluoropiperidin-1-yl)-1-(1-methyl-1H-pyrazol-4-yl)ethyl)amino)-6-phenyl-5,6,7,8-tetrahydroquinazolin-2-yl)(methyl)amino)propyl)cyclohexane-1-carboxylic acid]	1.3	93.013 % of ANP	1.16	105.900 % of ANP	
CC[C@@H](Nc1nc2c(c(N[C@@H](CN3C4CCCC3CCC4)c3cnn(C(C)C)c3)n1)C[C@H](c1ccccc1)CC2)[C@H]1CC[C@H](C(=O)O)CC1 [Compound 132, (1R,4r)-4-((R)-1-(((R)-4-(((R)-2-((1S,5S)-9-azabicyclo[3.3.1]nonan-9-yl)-1-(1-isopropyl-1H-pyrazol-4-yl)ethyl)amino)-6-phenyl-5,6,7,8-tetrahydroquinazolin-2-yl)amino)propyl)cyclohexane-1-carboxylic acid]	0.757	97.440 % of ANP		103.231 % of ANP	0.62
CC[C@@H](Nc1nc2c(c(N[C@@H](CN3C4CCCC3CCC4)c3cnn(C)c3)n1)C[C@H](c1ccccc1)CC2)[C@H]1CC[C@H](C(=O)O)CC1 [Compound 59, (1R,4r)-4-((R)-1-(((R)-4-(((R)-2-((1S,5S)-9-azabicyclo[3.3.1]nonan-9-yl)-1-(1-methyl-1H-pyrazol-4-yl)ethyl)amino)-6-phenyl-5,6,7,8-tetrahydroquinazolin-2-yl)amino)propyl)cyclohexane-1-carboxylic acid]	0.205	99.614 % of ANP		104.401 % of ANP	0.153
CC[C@H]([C@H]1CC[C@H](C(=O)O)CC1)N(C)c1nc2c(c(N[C@@H](CN3CCC[C@H](C)C3)c3cnn(C)c3)n1)C[C@@H](c1cccc(F)c1)CC2 [Compound 75, (1R,4r)-4-((R)-1-(((S)-6-(3-fluorophenyl)-4-(((R)-1-(1-methyl-1H-pyrazol-4-yl)-2-((S)-3-methylpiperidin-1-yl)ethyl)amino)-5,6,7,8-tetrahydroquinazolin-2-yl)(methyl)amino)propyl)cyclohexane-1-carboxylic acid]	0.247	93.803 % of ANP		102.588 % of ANP	0.162
CC[C@H]([C@H]1CC[C@H](C(=O)O)CC1)N(C)c1nc2c(c(N[C@@H](CN3CCCCC3)c3cnn(C)c3)n1)CN(c1cccc(F)c1)CC2 [Compound 157, (1R,4r)-4-((R)-1-((6-(3-fluorophenyl)-4-(((R)-1-(1-methyl-1H-pyrazol-4-yl)-2-(piperidin-1-yl)ethyl)amino)-5,6,7,8-tetrahydropyrido[4,3-d]pyrimidin-2-yl)(methyl)amino)propyl)cyclohexane-1-carboxylic acid]	1.43	99.549 % of ANP	0.999	105.667 % of ANP	
CC[C@@H](N(C)c1nc2c(c(N[C@@H](CN3CCC[C@H](CF)C3)c3cnn(C)c3)n1)C[C@](C)(c1ccccc1)CC2)C12CC(C(=O)O)(C1)C2 [Compound 12, 3-((R)-1-(((R)-4-(((R)-2-((S)-3-(fluoromethyl)piperidin-1-yl)-1-(1-methyl-1H-pyrazol-4-yl)ethyl)amino)-6-methyl-6-phenyl-5,6,7,8-tetrahydroquinazolin-2-yl)(methyl)amino)propyl)bicyclo[1.1.1]pentane-1-carboxylic acid]	0.094	96.068 % of ANP	0.073	95.099 % of ANP	
CC[C@@H](N(C)c1nc2c(c(N[C@@H](CN3CCC[C@H](C)C3)c3cnn(C)c3)n1)C[C@H](c1cccc(F)c1)CC2)C12CC(C(=O)O)(C1)C2 [Compound 9, 3-((R)-1-(((R)-6-(3-fluorophenyl)-4-(((R)-1-(1-methyl-1H-pyrazol-4-yl)-2-((S)-3-methylpiperidin-1-yl)ethyl)amino)-5,6,7,8-tetrahydroquinazolin-2-yl)(methyl)amino)propyl)bicyclo[1.1.1]pentane-1-carboxylic acid]	0.088	95.056 % of ANP	0.045	95.667 % of ANP	
CC[C@@H](Nc1nc2c(c(N[C@@H](CN3CCCC(C)(C)C3)c3cnn(C)c3)n1)C[C@H](c1ccccc1)CC2)[C@H]1CC[C@H](C(=O)O)CC1 [Compound 95, (1R,4r)-4-((R)-1-(((R)-4-(((R)-2-(3,3-dimethylpiperidin-1-yl)-1-(1-methyl-1H-pyrazol-4-yl)ethyl)amino)-6-phenyl-5,6,7,8-tetrahydroquinazolin-2-yl)amino)propyl)cyclohexane-1-carboxylic acid]	0.334	97.121 % of ANP	0.173	94.323 % of ANP	
CC[C@@H](Nc1nc2c(c(N[C@@H](CN3C[C@H]4CC[C@@H]3C4)c3cnn(CC)c3)n1)C[C@H](c1ccccc1)CC2)[C@H]1CC[C@H](C(=O)O)CC1 [Compound 122, (1R,4r)-4-((R)-1-(((R)-4-(((R)-2-((1R,4S)-2-azabicyclo[2.2.1]heptan-2-yl)-1-(1-ethyl-1H-pyrazol-4-yl)ethyl)amino)-6-phenyl-5,6,7,8-tetrahydroquinazolin-2-yl)amino)propyl)cyclohexane-1-carboxylic acid]	0.574	102.209 % of ANP	0.411	99.605 % of ANP	
CC[C@H]([C@H]1CC[C@H](C(=O)O)CC1)N(C)c1nc2c(c(N[C@@H](CN3CCC[C@@H](C)C3)c3cnn(C)c3)n1)C[C@H](c1ccccc1)CC2 [Compound 125, (1R,4r)-4-((R)-1-(methyl((R)-4-(((R)-1-(1-methyl-1H-pyrazol-4-yl)-2-((R)-3-methylpiperidin-1-yl)ethyl)amino)-6-phenyl-5,6,7,8-tetrahydroquinazolin-2-yl)amino)propyl)cyclohexane-1-carboxylic acid]	0.619	106.130 % of ANP	0.41	114.072 % of ANP	
